From patent publication US10745355B2, “Anti-cancer compounds” (THE UNIVERSITY OF SYDNEY, priority 2015, dated 2020)

Test system: U87vIII
Assay: Annexin-FITC/7-AAD apoptosis assay, U87vIII cells
Type: cell-based
Settings: 48 hours treatment
Method: FIGS. 4A-4D. […] U87 (4A-4B) and U87vIII (4C-4D) cells were treated with SC-38 for 48 hours and stained with Annexin-FITC/7-AAD. Apoptotic cells were visualized using the MUSE cell analyzer (Millipore).
FIGS. 6A-6D. […] U87 (A B) (6A-6B) and U87vIII (6C-6D) cells were treated with compound 1-08 for 48 hours and stained with Annexin-FITC/7-AAD. Apoptotic cells were visualized using the MUSE cell analyzer (Millipore). Results are means±SEM from 3 independent experiments. One-way ANOVA followed by Dunnet post-test was used to calculate statistical significance (***P<0.001).
U87 (FIGS. 4, A-B) and U87vIII (FIG. 4, C-D) cells were treated with SC-38 for 48 hours and stained with Annexin-FITC/7-AAD. Apoptotic cells were visualized using the MUSE cell analyzer (Millipore). Results are means±SEM from 3 independent experiments. One-way ANOVA followed by Dunnet post-test was used to calculate statistical significance (**P<0.01, ***P<0.001)
U87 (FIGS. 6, A-B) and U87vIII (FIG. 6, C-D) cells were treated with compound 1-08 for 48 hours and stained with Annexin-FITC/7-AAD. Apoptotic cells were visualized using the MUSE cell analyzer (Millipore). Results are means±SEM from three independent experiments. One-way ANOVA followed by Dunnet post-test was used to calculate statistical significance (***P<0.001).

## O=C(CCCc1ccc(-c2cnc3ccccc3c2)cc1)Nc1ccc(O)cc1 [Compound 1-08, N-(4-hydroxyphenyl)-4-(4-(quinolin-3-yl)phenyl)butanamide]
  apoptosis, U87vIII: induced apoptosis
